Source: PMC12299904, “Purine–Hydrazone Scaffolds as Potential Dual EGFR/HER2 Inhibitors” (Pharmaceuticals, 2025)
Several values for one entry are separate records, joined by “and”; a condition that tells them apart may be missing. Equal entries are not always repeated. Where two headings read alike, the source gives them in different places.

Columns and labels:
A549 cells = experiment: In vitro cytotoxicity assay (MTT), A549; settings: for IC50: mean ± SD, three experiments
Protocol: (§1) The selected cell lines include A549, a lung cancer cell line that is characterized by its high expression of EGFR; SKOV-3, an ovarian cancer cell line, selected for its overexpression of both EGFR and HER2; and the breast cancer cell line (SKBR-3), characterized by HER2 overexpression.
(§2) Cells were passaged regularly at around 80% confluency using […] and maintained in 75 cm^2 flasks at 37 °C in a humidified atmosphere containing 5% CO2.
(§3) Approximately 10 × 10^3 cells were seeded per well of the 96-well plates using drug-free media and incubated for 24 h. […] After 48 h of drug exposure, the supernatant was aspirated, and the cells were washed with 100 μL of PBS. The MTT assay was performed by creating a stock solution of MTT at a concentration of 5 mg/mL in PBS. From this stock, a solution of MTT in the cell culture media was prepared to achieve a final concentration of 0.5 mg/mL. […] The MTT solution was thereafter removed, and the generated formazan crystals were dissolved by adding 100 μL of propanol/DMSO (50:50) per well. Absorbance was measured at 570 nm, and IC50 values for each compound were calculated by comparison against negative untreated controls.

SKOV-3 cells = experiment: In vitro cytotoxicity assay (MTT), SKOV-3; format: cell-based, human; settings: for IC50: mean ± SD, three experiments
Protocol: as §1, §2, §3

A2780 cells = experiment: In vitro cytotoxicity assay (MTT), A2780; format: cell-based; settings: Homo sapiens, 48 h, read-out: percentage of cell viability, A2780
SKBR-3 cells = experiment: In vitro cytotoxicity assay (MTT), SKBR-3; format: cell-based, human; settings: for IC50: MTT, 48 h, mean ± SD, three experiments
Protocol: as §1, §2, §3

[1] = In vitro cytotoxicity assay (MTT), normal cell line MRC-5; format: cell-based; settings: MRC-5 normal embryonic lung cells, normal human embryonic lung cell line, mean ± SD
Protocol: as §2, §3

EGFR = biological target: T1, EGFR (Homo sapiens, UniProt P00533); experiment: In vitro enzyme inhibition assay, EGFR Kinase Assay Kit (BPS Bioscience); format: biochemical; settings: three independent experiments; read-out: Protein Kinase Inhibition IC50, EGFR
T1 construct: purchased BPS Bioscience 40321

HER2 = biological target: T2, HER2 (Homo sapiens, UniProt P04626); experiment: In vitro enzyme inhibition assay, HER2 Kinase Assay Kit (BPS Bioscience); format: biochemical; settings: three independent experiments; read-out: Protein Kinase Inhibition IC50, HER2
T2 construct: purchased BPS Bioscience 40721

[2] = test system: A549, SKOV-3, A2780, SKBR-3 cells; experiment: MTT assay, ranges stated over several cell lines; format: cell-based, human; settings: IC50 MRC-5/IC50 cancer cell line; A549, SKOV-3, SKBR-3
Protocol: as §1, §2, §3

T1 sequence (P00533 25-1210): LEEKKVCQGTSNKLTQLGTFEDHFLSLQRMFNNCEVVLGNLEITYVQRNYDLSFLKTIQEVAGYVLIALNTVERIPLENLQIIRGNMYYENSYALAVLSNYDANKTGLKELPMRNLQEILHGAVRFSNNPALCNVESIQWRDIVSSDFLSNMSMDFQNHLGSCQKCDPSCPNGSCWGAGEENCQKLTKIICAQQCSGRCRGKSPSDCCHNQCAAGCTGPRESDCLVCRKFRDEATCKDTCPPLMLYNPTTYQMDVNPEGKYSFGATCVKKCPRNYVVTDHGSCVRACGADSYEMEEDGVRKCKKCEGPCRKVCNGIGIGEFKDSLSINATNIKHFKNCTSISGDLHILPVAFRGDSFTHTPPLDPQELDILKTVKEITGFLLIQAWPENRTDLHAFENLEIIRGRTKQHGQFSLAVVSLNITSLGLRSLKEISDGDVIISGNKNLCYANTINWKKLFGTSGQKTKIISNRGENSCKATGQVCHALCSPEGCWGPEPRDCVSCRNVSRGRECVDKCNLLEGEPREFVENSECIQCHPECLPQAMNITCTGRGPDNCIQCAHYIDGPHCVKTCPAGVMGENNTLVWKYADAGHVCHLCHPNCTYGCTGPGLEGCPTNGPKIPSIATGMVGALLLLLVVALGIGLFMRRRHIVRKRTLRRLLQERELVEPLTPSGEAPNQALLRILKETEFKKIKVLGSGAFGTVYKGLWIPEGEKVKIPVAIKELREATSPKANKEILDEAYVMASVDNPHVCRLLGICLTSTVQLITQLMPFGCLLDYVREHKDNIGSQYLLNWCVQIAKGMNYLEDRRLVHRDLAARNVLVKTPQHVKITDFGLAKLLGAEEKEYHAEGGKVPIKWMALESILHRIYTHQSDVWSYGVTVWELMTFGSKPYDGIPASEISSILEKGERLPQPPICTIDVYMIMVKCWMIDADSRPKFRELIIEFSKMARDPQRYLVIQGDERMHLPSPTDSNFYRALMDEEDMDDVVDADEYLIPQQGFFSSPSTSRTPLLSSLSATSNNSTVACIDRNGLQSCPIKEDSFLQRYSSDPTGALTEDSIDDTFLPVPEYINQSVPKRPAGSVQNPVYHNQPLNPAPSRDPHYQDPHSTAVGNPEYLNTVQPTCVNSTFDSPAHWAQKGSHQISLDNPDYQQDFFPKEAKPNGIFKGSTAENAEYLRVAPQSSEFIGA
T2 sequence (P04626 23-1255): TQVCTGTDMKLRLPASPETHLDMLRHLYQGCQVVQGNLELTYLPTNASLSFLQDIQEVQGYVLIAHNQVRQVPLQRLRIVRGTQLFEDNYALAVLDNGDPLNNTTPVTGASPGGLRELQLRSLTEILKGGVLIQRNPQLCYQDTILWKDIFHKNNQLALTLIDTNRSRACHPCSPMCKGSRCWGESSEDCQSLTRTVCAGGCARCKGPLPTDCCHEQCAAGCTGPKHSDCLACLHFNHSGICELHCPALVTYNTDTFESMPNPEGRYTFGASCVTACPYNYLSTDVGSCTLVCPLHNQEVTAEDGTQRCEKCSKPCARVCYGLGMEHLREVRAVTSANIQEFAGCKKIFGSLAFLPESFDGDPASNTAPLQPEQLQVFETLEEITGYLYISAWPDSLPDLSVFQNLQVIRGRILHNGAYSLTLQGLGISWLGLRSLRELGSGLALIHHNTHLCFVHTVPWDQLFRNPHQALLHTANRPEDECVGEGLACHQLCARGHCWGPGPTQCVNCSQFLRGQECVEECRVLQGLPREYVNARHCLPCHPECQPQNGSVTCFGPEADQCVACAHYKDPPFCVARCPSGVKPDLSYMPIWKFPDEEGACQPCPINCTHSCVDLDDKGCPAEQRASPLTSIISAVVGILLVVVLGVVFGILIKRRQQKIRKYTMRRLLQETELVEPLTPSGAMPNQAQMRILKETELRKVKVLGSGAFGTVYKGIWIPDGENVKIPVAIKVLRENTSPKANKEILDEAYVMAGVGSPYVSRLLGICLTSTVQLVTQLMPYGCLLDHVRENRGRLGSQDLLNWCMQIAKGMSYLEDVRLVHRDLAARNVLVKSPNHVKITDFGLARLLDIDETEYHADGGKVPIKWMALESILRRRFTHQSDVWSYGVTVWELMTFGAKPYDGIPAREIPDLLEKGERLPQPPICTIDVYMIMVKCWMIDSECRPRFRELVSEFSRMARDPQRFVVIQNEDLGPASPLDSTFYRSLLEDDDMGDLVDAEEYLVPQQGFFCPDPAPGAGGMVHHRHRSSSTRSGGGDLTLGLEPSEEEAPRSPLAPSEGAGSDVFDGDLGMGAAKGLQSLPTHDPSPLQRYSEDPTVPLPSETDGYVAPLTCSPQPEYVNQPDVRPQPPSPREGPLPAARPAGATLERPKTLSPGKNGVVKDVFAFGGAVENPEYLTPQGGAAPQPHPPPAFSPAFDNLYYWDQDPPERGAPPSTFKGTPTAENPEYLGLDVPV

IC50 (EGFR): 60 nM and 62 nM
IC50 (HER2): 45 ± 10 nM
Structure (SMILES): O=C(N/N=C/c1cccc(C(F)(F)F)c1)c1ccc(Nc2ncnc3c2ncn3C2CCCC2)cc1 [16b, (E)-4-((9-cyclopentyl-9H-purin-6-yl)amino)-N′-(3-(trifluoromethyl)benzylidene) benzohydrazide]
IC50 (A549 cells; Homo sapiens, A549, 48 h, read-out: Cytotoxicity (IC50), A549, MTT, 48 h): 2600 ± 350 nM
viability at 10 µM (A549 cells; Homo sapiens, A549, 48 h, read-out: percentage of cell viability, A549): 27%
Selectivity index (SI), A549 (A549 cells; IC50 against MRC-5/IC50 against A549): 14.07
IC50 (A549 cells; read-out: Cytotoxicity (IC50), A549, MTT, 48 h): 2600 ± 351 nM
IC50 (SKOV-3 cells; Homo sapiens, SK-OV-3, 48 h, MTT, 48 h): 1970 ± 70 nM
viability at 10 µM (SKOV-3 cells; Homo sapiens, SK-OV-3, 10 µM, 48 h, MTT, read-out: percentage of cell viability, SKOV-3): 26%
Selectivity index (SI), SKOV-3 (SKOV-3 cells; IC50 against MRC-5/IC50 against SKOV-3): 18.55
IC50 (SKOV-3 cells; MTT, 48 h): 1980 ± 70 nM
viability at 10 µM (A2780 cells): 16%
IC50 (SKBR-3 cells; Homo sapiens, SK-BR-3, 48 h): 4300 ± 940 nM
Selectivity index (SI), SKBR-3 (SKBR-3 cells; IC50 against MRC-5/IC50 against SKBR-3): 8.51
IC50 (SKBR-3 cells): 4310 ± 948 nM
IC50 at 48 h [1]: 36650 ± 200 nM
Selectivity index (SI) range across cancer cell lines [2]: 8.51–18.55
